Consider 37 molecules from patent publication US10106542B2, “Substituted 6,7-dihydropyrazolo[1,5-a]pyrazines as negative allosteric modulators of mGluR2 receptors” (Janssen Pharmaceutica NV, priority 2013, dated 2018).

Data set [1] deals with T1, human mGlu2 receptor (Homo sapiens, UniProt Q14416).
T1 construct: expressed in transfected cells; host or cells: CHO cells (membrane preparation)
The experiment in a line: [35S]GTPγS binding assay (mGluR2 negative allosteric modulation). In kind it is biochemical. Particulars: for IC50: membranes from CHO cells transfected with human mGlu2 receptor, glutamate 60 μM, pIC50 = −log IC50 (M), read-out: GTPγS - hmGluR2 anGT pIC50 (converted); for Emax: read-out: GTPγS - hmGluR2 anGT Emax. On the procedure: 1) [^35S]GTPγS binding assay
The [^35S]GTPγS binding assay is a functional membrane-based assay used to study G-protein coupled receptor (GPCR) function whereby incorporation of a non-hydrolysable form of GTP, [^35S]GTPγS (guanosine 5′-triphosphate, labelled with […] ^35S), is measured. The G-protein a subunit catalyzes the exchange of guanosine 5′-diphosphate (GDP) by guanosine triphosphate (GTP) and on activation of the GPCR by an agonist, [^35S]GTPγS, becomes incorporated and cannot be cleaved to continue the exchange cycle (Harper (1998) Current Protocols in Pharmacology 2.6.1-10, John Wiley & Sons, Inc.). […] Here we describe the use of the [^35S]GTPγS binding assay using membranes from cells transfected with the human mGlu2 receptor and adapted from Schaffhauser et al. (Molecular Pharmacology, 2003, […]) for the detection of the negative allosteric modulation (NAM) properties of the compounds of this invention.
CHO-cells were cultured to pre-confluence and stimulated with 5 mM butyrate for 24 h. Cells were then collected by scraping in PBS and cell suspension was centrifuged (10 min at 4000 RPM in benchtop centrifuge). Supernatant was discarded and pellet gently resuspended in 50 mM Tris-HCl, pH 7.4 by mixing with an Ultra Turrax homogenizer. The suspension was centrifuged at 12,400 RPM (Sorvall F14S-6x250Y) for 10 minutes and the supernatant discarded. The pellet was homogenized in 5 mM Tris-HCl, pH 7.4 using an Ultra Turrax homogenizer and centrifuged again (13,000 RPM, 20 min, 4° C.). The final pellet was resuspended in 50 mM Tris-HCl, pH 7.4 and stored at −80° C. in appropriate aliquots before use. Protein concentration was determined by the Bradford method (Bio-Rad, USA) with bovine serum albumin as standard.
Measurement of mGluR2 negative allosteric modulatory activity of test compounds was performed as follows. Test compounds and glutamate were diluted in assay buffer containing 10 mM HEPES acid, 10 mM HEPES salt, pH 7.4, 100 mM NaCl, 3 mM MgCl2 and 10 μM GDP. Human mGlu2 receptor-containing membranes were thawed on ice and diluted in assay buffer supplemented with 18 μg/ml saponin. […] After addition of [^35S]GTPγS (f.c. 0.1 nM), assay mixtures were shaken briefly and further incubated to allow [^35S]GTPγS incorporation on activation (30 minutes, 30° C.). Final assay mixtures contained 7 μg of membrane protein in 10 mM HEPES acid, 10 mM HEPES salt, pH 7.4, 100 mM NaCl, 3 mM MgCl2, 10 μM GDP and 10 μg/ml saponin. Total reaction volume was 200 μl. Reactions were terminated by rapid filtration through Unifilter-96 GF/B plates (Perkin Elmer, Massachusetts, USA) using a 96-well filtermate universal harvester. Filters were washed 6 times with ice-cold 10 mM NaH2PO4/10 mM Na2HPO4, pH 7.4. Filters were then air-dried, and 30 μl of liquid scintillation cocktail (Microscint-O) was added to each well. Membrane-bound radioactivity was counted in a Topcount.
The concentration-response curves of representative compounds of the present invention were generated using the Lexis software interface (developed at J&J). Data were calculated as % of the control glutamate response, defined as the response that is generated upon addition of an EC80-equivalent concentration of glutamate.
In general terms: GTPγS resists hydrolysis and so accumulates on activated G proteins.

[2] abbreviates: relative maximal effect: maximal % inhibition relative to the control glutamate response.

SMILES strings stand for the structures. Structures can show the parent of a compound that is named as a salt. Some results are limits rather than exact numbers.

T1 sequence (Q14416 19-872): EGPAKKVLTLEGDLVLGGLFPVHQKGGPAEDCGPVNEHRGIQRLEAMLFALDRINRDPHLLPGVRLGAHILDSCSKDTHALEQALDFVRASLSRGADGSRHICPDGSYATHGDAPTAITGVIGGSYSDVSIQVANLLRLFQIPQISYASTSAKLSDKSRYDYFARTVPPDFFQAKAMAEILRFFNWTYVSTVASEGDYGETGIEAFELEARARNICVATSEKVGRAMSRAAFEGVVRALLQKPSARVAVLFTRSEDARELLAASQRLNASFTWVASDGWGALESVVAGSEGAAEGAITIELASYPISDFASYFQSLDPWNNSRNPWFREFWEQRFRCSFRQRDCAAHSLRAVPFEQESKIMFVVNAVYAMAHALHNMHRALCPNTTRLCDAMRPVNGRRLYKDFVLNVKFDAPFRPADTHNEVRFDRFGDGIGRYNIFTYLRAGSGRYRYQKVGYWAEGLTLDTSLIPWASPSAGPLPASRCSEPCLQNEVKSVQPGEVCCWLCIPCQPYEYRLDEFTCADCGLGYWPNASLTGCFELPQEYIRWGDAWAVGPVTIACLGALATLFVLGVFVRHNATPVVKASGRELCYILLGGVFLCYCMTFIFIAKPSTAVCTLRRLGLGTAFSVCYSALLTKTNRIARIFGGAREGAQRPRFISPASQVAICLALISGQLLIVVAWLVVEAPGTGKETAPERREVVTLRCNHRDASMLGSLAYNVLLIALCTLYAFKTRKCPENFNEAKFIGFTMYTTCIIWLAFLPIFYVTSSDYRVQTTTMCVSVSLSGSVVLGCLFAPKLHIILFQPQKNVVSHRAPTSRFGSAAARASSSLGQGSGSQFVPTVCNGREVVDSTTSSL

As to `CCOc1ccc(N2C[C@H](C)n3ncc(-c4ccnc(C)c4)c3C2=O)cc1Cl` (as salt: HCl) [compound 17], the melting point was greater than 300 °C.

The molecule `COc1ccc(N2C[C@H](C)n3ncc(-c4ccnc(C)c4)c3C2=O)cc1Cl` (as salt: HCl) [compound 20] gave a melting point of 293.6 °C.

With `COCc1cc(-c2cnn3c2C(=O)N(c2ccc(C(F)(F)F)cc2)C[C@@H]3C)ccn1` (as salt: HCl) [compound 22], the melting point worked out at 282.3 °C.

With `COc1ccc(N2C[C@H](C)n3ncc(-c4ccnc(C)c4)c3C2=O)cc1` (as salt: HCl) [compound 38], the melting point was 294 °C.

With `C[C@H]1CN(c2ccc(C(F)(F)F)cc2)C(=O)c2c(-c3ccnc(N4CCCCC4)c3)cnn21` (as salt: HCl) [compound 107], the melting point came to 294 °C.

In turn, `CCOc1cc(-c2cnn3c2C(=O)N(c2ccc(Cl)c(Cl)c2)C[C@@H]3C)ccn1` (as salt: HCl) [compound 133] registered a melting point of 191.5 °C.

In turn, `CC(C)Oc1cc(-c2cnn3c2C(=O)N(c2ccc(Cl)c(Cl)c2)C[C@@H]3C)ccn1` (as salt: HCl) [compound 137] displayed a melting point of 193.8 °C.

`CC(C)Oc1cc(-c2cnn3c2C(=O)N(c2ccc(C(F)(F)F)cc2)C[C@@H]3C)ccn1` (as salt: HCl) [compound 138]: the melting point amounted to 173.9 °C.

With `Cc1cc(-c2cnn3c2C(=O)N(c2ccc(SC(F)(F)F)cc2)C[C@@H]3C)ccn1` (as salt: HCl) [compound 236], the melting point was greater than 300 °C.

In turn, `CN(C)c1cc(-c2cnn3c2C(=O)N(c2ccc(Cl)c(Cl)c2)CC3CF)ccn1` (single isomer, unassigned) [compound 90] registered a melting point of 93.7 °C. Moreover, the IC50 in data set [1] is 3.09e-09 M. In addition, in data set [1] (setting [2]), the Emax was determined as 103%.

In the case of `CN(C)c1cc(-c2cnn3c2C(=O)N(c2ccc(Cl)c(Cl)c2)CC3CF)ccn1` (single isomer, unassigned) [compound 91], the melting point was 86 °C. Moreover, the IC50 in data set [1] was 5.62e-08 M. Further, the “GTPγS - hmGluR2 anGT Emax” value in data set [1] (setting [2]) amounted to 103%.

Take `Cc1cc(-c2cnn3c2C(=O)N(c2ccc(Cl)c(C)c2)C[C@@H]3C)ccn1` [compound 7]: the melting point is 126.7 °C. The IC50 in data set [1] is 7.59e-09 M. Besides, in data set [1] (setting [2]), the Emax was 102%.

`Cc1cc(-c2cnn3c2C(=O)N(c2ccc(F)c(C)c2)C[C@@H]3C)ccn1` [compound 21] displayed a melting point of 219.2 °C. Further, in data set [1], the IC50 is 6.17e-08 M. Besides, the Emax in data set [1] (setting [2]) stood at 107%.

Regarding `Cc1cc(-c2cnn3c2C(=O)N(c2cccc(C(F)(F)F)c2)C[C@@H]3C)ccn1` [compound 23], the melting point is 139.2 °C. Further, the IC50 in data set [1] is 1.1e-07 M. Further, the maximal response (Emax) in data set [1] (setting [2]) stood at 104%.

Take `Cc1cc(-c2cnn3c2C(=O)N(c2ccc(OC(F)F)cc2)C[C@@H]3C)ccn1` [compound 27]: the melting point is 137.1 °C. Further, in data set [1], the IC50 is 1.38e-07 M. Moreover, in data set [1] (setting [2]), the Emax turned out to be 104%.

Take `Cc1cc(-c2cnn3c2C(=O)N(c2ccc(C(F)(F)F)cc2)C[C@@H]3C)cnc1C` [compound 29]: the melting point is 140.8 °C. For the same molecule, the IC50 in data set [1] was 2.29e-07 M. Moreover, the Emax in data set [1] (setting [2]) is 102%.

For the molecule `Cc1cc(-c2cnn3c2C(=O)N(c2ccc(Cl)cc2F)C[C@@H]3C)ccn1` [compound 30], the melting point came to 78.6 °C. Further, the IC50 in data set [1] was 2.57e-07 M. Moreover, the Emax in data set [1] (setting [2]) is 104%.

In the case of `C[C@H]1CN(c2ccc(C(F)(F)F)cc2)C(=O)c2c(-c3ccc(N)nc3)cnn21` [compound 37], the melting point worked out at 254 °C. The IC50 in data set [1] was 9.77e-07 M. For the same molecule, in data set [1] (setting [2]), the Emax was 99%.

Regarding `Cc1cc(-c2cnn3c2C(=O)N(c2ccc(C(F)(F)F)c(F)c2)CC3)ccn1` [compound 39], the melting point was determined as 185.2 °C. Also, in data set [1], the IC50 was 1.62e-06 M. Moreover, the Emax in data set [1] (setting [2]) stood at 100%.

`CCOc1cc(N2C[C@H](C)n3ncc(-c4cc(C)nc(C)c4)c3C2=O)ccc1C(F)(F)F` [compound 49] gave a melting point of 183.9 °C. In addition, the IC50 in data set [1] is 8.71e-09 M. Also, the Emax in data set [1] (setting [2]) was determined as 103%.

Regarding `C[C@H]1CN(c2ccc(C(F)(F)F)c(Cl)c2)C(=O)c2c(-c3ccncc3)cnn21` [compound 50], the melting point amounted to 146.8 °C. In data set [1], the IC50 is 9.55e-09 M. Moreover, the Emax in data set [1] (setting [2]) was 103%.

`COc1cc(N2C[C@H](C)n3ncc(-c4cc(C)nc(C)c4)c3C2=O)ccc1C(F)(F)F` [compound 51] registered a melting point of 93 °C. In addition, the IC50 in data set [1] is 1.1e-08 M. The Emax in data set [1] (setting [2]) was 104%.

As to `Cc1cc(-c2cnn3c2C(=O)N(c2ccc(Cl)cc2Cl)CC3)ccn1` [compound 244], in data set [1], the IC50 is 8.71e-06 M. Besides, the Emax in data set [1] (setting [2]) worked out at 80%.

For `C[C@H]1CN(c2ccc(C(F)(F)F)c(CF)c2)C(=O)c2c(-c3ccnc(N(C)C)c3)cnn21` [compound 246], the IC50 in data set [1] is 4.17e-09 M. Further, in data set [1] (setting [2]), the Emax came out at 116%.

For the molecule `C[C@H]1CN(c2ccc(C(F)(F)F)cc2)C(=O)c2c(-c3ccnc(F)c3)cnn21` [compound 247], the IC50 in data set [1] is 3.02e-08 M. Further, the Emax in data set [1] (setting [2]) was found to be 109%.

With `C[C@H]1CN(c2ccc(C(F)(F)F)c(OCCF)c2)C(=O)c2c(-c3ccnc(N(C)C)c3)cnn21` [compound 249], in data set [1], the IC50 was 8.32e-09 M. For the same molecule, in data set [1] (setting [2]), the Emax was determined as 109%.

Turning to `COc1nc(N2C[C@H](C)n3ncc(-c4ccnc(N(C)C)c4)c3C2=O)ccc1C(F)(F)F` [compound 250], in data set [1], the IC50 was 3.98e-09 M. Besides, the Emax in data set [1] (setting [2]) was 120%.

For `CCN(C)c1cc(-c2cnn3c2C(=O)N(c2ccc(C(F)(F)F)cc2)C[C@@H]3C)ccn1` [compound 253], the IC50 in data set [1] was 6.17e-09 M. Also, the Emax in data set [1] (setting [2]) was 111%.

On to `CCN(C)c1cc(-c2cnn3c2C(=O)N(c2ccc(C(F)(F)F)c(Cl)c2)C[C@@H]3C)ccn1` [compound 254], for which the IC50 in data set [1] was 1.7e-09 M. The Emax in data set [1] (setting [2]) was 109%.

Consider `CCCNc1cc(-c2cnn3c2C(=O)N(c2ccc(C(F)(F)F)c(C)c2)C[C@@H]3C)ccn1` [compound 258], for which the IC50 in data set [1] is 6.03e-09 M. Further, the Emax in data set [1] (setting [2]) stood at 108%.

For the molecule `CCCNc1cc(-c2cnn3c2C(=O)N(c2ccc(C(F)(F)F)cc2)C[C@@H]3C)ccn1` [compound 259], the IC50 in data set [1] was 1.78e-08 M. In addition, in data set [1] (setting [2]), the Emax was 105%.

`Cc1cc(N2C[C@H](C)n3ncc(-c4ccnc(N5CCC5)c4)c3C2=O)ccc1C(F)(F)F` [compound 260]: the IC50 in data set [1] is 3.55e-09 M. The Emax in data set [1] (setting [2]) is 105%.

As to `CC(C)Nc1cc(-c2cnn3c2C(=O)N(c2ccc(Cl)c(Cl)c2)C[C@@H]3C)ccn1` [compound 261], in data set [1], the IC50 is 1.1e-08 M. The Emax in data set [1] (setting [2]) was 107%.

For the molecule `CC(C)Nc1cc(-c2cnn3c2C(=O)N(c2ccc(C(F)(F)F)c(Cl)c2)C[C@@H]3C)ccn1` [compound 262], the IC50 in data set [1] is 6.17e-09 M. Besides, in data set [1] (setting [2]), the Emax came to 109%.

Turning to `CCCNc1cc(-c2cnn3c2C(=O)N(c2ccc(Cl)c(Cl)c2)C[C@@H]3C)ccn1` [compound 263], the IC50 in data set [1] is 4.68e-09 M. Also, the Emax in data set [1] (setting [2]) worked out at 109%.

For `CCCNc1cc(-c2cnn3c2C(=O)N(c2ccc(C(F)(F)F)c(Cl)c2)C[C@@H]3C)ccn1` [compound 264], in data set [1], the IC50 was 2.69e-09 M. Besides, the Emax in data set [1] (setting [2]) came to 108%.

Consider `C[C@H]1CN(c2ccc(C(F)(F)F)c(Cl)c2)C(=O)c2c(-c3ccnc(CF)c3)cnn21` [compound 265], for which, in data set [1], the IC50 was 5.5e-09 M. Further, the Emax in data set [1] (setting [2]) stood at 111%.

What is called melting point is the temperature of the solid-liquid transition. By Emax is commonly meant the size of the effect at its maximum, as opposed to the concentration needed.
